Experimental findings from patent publication US20260167619A2, “INDOLINE COMPOUNDS AND DERIVATIVES AS EGFR INHIBITORS” (BeOne Medicines I GmbH, priority 2020, published 2026) are described below.

Experiment [1] has as its target T1, EGFR (aa668-1210, Invitrogen) (Homo sapiens, UniProt P00533).
T1 construct: EGFR (aa668-1210, Invitrogen); purchased Invitrogen
The experiment is described as follows: Biochemical EGFR inhibition assay (TR-FRET), wild-type EGFR. As to conditions: ATP at Km, 15 min pre-incubation, 60 min reaction; read-out: WT (Km ATP) IC50. A digest of the protocol: (§1)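 Signal was the 665 nm/620 nm emission ratio (excitation 337 nm) from anti-phosphotyrosine Eu cryptate and streptavidin-XL665 bound to phosphorylated biotin-poly GT. Reactions ran 60 min at room temperature with ATP at its Km after 15 min compound preincubation. Residual activity versus concentration was fitted to a four-parameter logistic for IC50.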
Background: Time-resolved FRET reads energy transfer from a long-lived donor to a nearby acceptor.

Experiment [2] deals with T2, EGFR(L858R_T790M_C797S) (aa695-end, Invitrogen) (Homo sapiens, UniProt P00533, C797S/L858R/T790M).
T2 construct: purchased Invitrogen
T2 sequence (P00533 695-1210 T790M/C797S/L858R): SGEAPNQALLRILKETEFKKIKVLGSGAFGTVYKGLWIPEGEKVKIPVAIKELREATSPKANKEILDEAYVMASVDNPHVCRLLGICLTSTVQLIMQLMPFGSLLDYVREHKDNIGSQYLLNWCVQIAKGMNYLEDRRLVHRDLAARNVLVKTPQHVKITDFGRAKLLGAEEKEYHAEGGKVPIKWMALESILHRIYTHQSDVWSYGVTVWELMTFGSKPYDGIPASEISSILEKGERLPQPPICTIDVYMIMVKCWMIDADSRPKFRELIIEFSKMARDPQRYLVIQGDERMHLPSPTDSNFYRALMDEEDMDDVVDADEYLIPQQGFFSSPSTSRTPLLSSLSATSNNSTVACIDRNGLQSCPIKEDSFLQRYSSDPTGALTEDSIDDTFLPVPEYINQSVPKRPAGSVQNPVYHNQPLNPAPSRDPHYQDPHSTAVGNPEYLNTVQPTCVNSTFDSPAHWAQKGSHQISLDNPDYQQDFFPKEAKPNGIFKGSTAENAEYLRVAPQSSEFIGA
The experiment is described as follows: Biochemical EGFR inhibition assay (TR-FRET), L858R/T790M/C797S mutant. As to conditions: ATP at Km, 15 min pre-incubation, 60 min reaction; read-out: LR_TM_CS (Km ATP) IC50. The method in brief: as §1

The target of experiment [3] is EGFR(Dell9_T790M_C797S) (aa 669-1210, in house) (Homo sapiens, UniProt P00533, T790M/C797S, form not given). The experiment is described as follows: Biochemical EGFR inhibition assay (TR-FRET), Del19/T790M/C797S mutant. The following applies: ATP at Km, 15 min pre-incubation, 60 min reaction; read-out: Del_TM_CS (Km ATP) IC50. The method in brief:
as §1

The target of another experiment is BaF3-WT cells (Homo sapiens, UniProt P00533). The experiment is described as follows: Cell antiproliferation assay (CellTiter-Glo), BaF3-WT. As to conditions: 48 h treatment, read-out: BaF3-WT IC50. The class given is cell-based. A digest of the protocol: (§2)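 Cells exposed 48 h to 8 doses from 5-fold serial dilution (500× DMSO stocks from 5 mM), final 0.2% DMSO. Viability by CellTiter-Glo luminescence; IC50 from four-parameter fit of percent inhibition versus concentration.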

The target of a further experiment is BaF3-LR_TM_CS cells (Homo sapiens, UniProt P00533, T790M/C797S/L858R, cells depend on it). The experiment is described as follows: Cell antiproliferation assay (CellTiter-Glo), BaF3-LR_TM_CS. The class given is cell-based. As to conditions: 48 h treatment, read-out: BaF3-LR_TM_CS IC50. The method in brief: as §2
Chain of BaF3-LR_TM_CS cells (P00533 whole entry T790M/C797S/L858R): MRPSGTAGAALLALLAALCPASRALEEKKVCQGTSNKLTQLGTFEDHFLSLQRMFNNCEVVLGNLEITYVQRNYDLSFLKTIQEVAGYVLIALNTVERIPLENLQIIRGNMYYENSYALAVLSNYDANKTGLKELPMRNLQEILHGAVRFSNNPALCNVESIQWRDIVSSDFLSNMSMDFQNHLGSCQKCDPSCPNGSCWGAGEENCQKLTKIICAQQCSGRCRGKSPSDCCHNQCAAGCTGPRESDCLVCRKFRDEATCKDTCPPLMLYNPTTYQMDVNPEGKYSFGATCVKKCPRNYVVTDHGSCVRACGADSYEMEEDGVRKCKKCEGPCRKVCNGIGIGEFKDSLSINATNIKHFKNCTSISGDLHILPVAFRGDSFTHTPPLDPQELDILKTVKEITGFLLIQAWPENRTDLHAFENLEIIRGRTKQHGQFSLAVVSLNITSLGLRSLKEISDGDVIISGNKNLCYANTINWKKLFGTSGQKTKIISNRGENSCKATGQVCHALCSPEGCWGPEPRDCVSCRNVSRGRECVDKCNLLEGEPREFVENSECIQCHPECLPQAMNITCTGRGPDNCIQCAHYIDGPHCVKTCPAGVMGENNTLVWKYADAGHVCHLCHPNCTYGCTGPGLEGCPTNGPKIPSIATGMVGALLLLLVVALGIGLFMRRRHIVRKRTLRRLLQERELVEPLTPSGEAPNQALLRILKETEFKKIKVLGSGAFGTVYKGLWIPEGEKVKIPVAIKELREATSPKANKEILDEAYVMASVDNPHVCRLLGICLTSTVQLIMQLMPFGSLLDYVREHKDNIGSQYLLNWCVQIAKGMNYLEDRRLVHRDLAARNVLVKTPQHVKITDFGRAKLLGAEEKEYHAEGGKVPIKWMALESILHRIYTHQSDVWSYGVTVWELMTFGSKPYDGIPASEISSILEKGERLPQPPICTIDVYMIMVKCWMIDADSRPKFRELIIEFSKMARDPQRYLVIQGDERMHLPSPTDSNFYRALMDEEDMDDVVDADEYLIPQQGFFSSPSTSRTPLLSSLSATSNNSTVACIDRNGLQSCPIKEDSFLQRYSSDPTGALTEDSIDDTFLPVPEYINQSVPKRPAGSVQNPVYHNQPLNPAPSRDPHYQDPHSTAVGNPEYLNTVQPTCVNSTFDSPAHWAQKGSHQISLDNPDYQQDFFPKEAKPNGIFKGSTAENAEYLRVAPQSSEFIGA
For orientation: In ATP-based viability assays light output follows the ATP content of the culture.

The target in the next experiment is BaF3-Del_TM_CS cells (Homo sapiens, UniProt P00533, T790M/C797S, cells depend on it, form not given). The experiment is described as follows: Cell antiproliferation assay (CellTiter-Glo), BaF3-Del_TM_CS. It is filed as cell-based. The following applies: 48 h treatment, read-out: BaF3-Del_TM_CS IC50. A digest of the protocol:
as §2

Chain of EGFR(Dell9_T790M_C797S) (aa 669-1210, in house) (P00533 with tags, fused parts or gaps DEL746-750/T790M/C797S, form open): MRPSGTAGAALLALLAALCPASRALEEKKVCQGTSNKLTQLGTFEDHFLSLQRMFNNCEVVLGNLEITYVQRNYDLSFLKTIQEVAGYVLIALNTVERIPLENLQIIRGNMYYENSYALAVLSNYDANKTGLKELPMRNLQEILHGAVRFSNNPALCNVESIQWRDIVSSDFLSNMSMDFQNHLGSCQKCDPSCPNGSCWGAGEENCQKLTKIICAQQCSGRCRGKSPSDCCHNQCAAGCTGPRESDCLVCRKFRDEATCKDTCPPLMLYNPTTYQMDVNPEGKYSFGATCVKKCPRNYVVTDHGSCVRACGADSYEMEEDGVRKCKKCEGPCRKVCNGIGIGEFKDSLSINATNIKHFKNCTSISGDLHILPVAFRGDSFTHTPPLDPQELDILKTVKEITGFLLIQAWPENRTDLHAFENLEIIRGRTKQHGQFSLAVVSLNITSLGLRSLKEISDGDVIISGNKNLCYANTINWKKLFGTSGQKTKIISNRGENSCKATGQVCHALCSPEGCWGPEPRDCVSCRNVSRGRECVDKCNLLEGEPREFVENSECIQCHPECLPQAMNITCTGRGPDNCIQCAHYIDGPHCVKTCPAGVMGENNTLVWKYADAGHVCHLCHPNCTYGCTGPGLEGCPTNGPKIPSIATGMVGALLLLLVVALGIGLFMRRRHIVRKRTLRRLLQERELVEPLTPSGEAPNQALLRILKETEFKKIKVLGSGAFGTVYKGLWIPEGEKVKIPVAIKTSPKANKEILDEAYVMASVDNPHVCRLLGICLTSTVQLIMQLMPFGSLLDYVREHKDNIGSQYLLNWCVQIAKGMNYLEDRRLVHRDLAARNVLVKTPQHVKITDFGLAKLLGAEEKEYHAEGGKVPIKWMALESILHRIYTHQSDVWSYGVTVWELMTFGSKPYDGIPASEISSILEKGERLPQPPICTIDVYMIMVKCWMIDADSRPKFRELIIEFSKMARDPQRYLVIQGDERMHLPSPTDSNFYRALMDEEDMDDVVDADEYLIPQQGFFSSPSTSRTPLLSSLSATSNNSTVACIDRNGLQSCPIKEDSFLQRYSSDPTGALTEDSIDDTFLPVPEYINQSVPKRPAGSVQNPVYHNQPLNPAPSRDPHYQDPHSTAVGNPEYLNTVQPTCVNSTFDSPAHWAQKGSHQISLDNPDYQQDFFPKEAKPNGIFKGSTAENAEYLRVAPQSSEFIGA
Chain of BaF3-Del_TM_CS cells (P00533 with tags, fused parts or gaps DEL746-750/T790M/C797S, form open): as above
T1 sequence (P00533 668-1210): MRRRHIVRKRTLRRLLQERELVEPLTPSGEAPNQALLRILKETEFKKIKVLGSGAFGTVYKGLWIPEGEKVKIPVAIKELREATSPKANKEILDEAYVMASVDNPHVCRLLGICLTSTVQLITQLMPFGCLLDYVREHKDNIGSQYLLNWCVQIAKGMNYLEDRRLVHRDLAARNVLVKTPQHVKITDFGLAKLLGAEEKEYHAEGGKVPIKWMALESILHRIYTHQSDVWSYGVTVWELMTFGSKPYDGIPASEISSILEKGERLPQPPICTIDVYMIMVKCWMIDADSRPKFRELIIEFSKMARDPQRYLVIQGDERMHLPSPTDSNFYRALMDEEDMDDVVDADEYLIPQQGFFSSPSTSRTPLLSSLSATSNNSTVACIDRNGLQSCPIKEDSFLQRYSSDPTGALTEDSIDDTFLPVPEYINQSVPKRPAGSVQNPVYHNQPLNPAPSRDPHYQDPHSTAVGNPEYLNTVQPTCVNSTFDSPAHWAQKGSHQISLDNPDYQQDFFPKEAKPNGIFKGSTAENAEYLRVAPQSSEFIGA

The term IC50 denotes the midpoint of a concentration-inhibition curve. Take `COc1cc(N2CCC(N3CCN(C)CC3)CC2)ccc1Nc1nc(Nc2cccc3c2N(S(C)(=O)=O)CC3)c2[nH]ccc2n1` [Example 71, N^2-(2-methoxy-4-(4-(4-methylpiperazin-1-yl)piperidin-1-yl)phenyl)-N^4-(1-(methylsulfonyl)indolin-7-yl)-5H-pyrrolo[3,2-d]pyrimidine-2,4-diamine]: the half-inhibitory concentration (IC50) in experiment [1] came out at 623 nM; in experiment [2], 143 nM; in experiment [3], 133 nM. For the same compound, the figures for the GI50 on BaF3-WT cells, on BaF3-LR_TM_CS cells and on BaF3-Del_TM_CS cells were 2210 nM, 1470 nM and 920 nM, respectively.
On to `COc1cc(N2CCC(N3CCN(C)CC3)CC2)ccc1Nc1nc(Nc2cccc3c2N(S(C)(=O)=O)CC3)c2cc[nH]c2n1` [Example 90, N^2-(2-methoxy-4-(4-(4-methylpiperazin-1-yl)piperidin-1-yl)phenyl)-N^4-(1-(methylsulfonyl)indolin-7-yl)-7H-pyrrolo[2,3-d]pyrimidine-2,4-diamine], for which the IC50 in experiment [1] worked out at 44 nM; in experiment [2] it was 1.04 nM; in experiment [3] it was 1.5 nM. Also, the GI50 was 2560 nM at BaF3-WT cells, 191 nM at BaF3-LR_TM_CS cells and 87.5 nM at BaF3-Del_TM_CS cells.
As to `COc1cc(N2CCC(N3CCN(C)CC3)CC2)c(C)cc1Nc1nc(Nc2cccc3c2N(S(C)(=O)=O)CC3)c2cc[nH]c2n1` [Example 91, N^2-(2-methoxy-5-methyl-4-(4-(4-methylpiperazin-1-yl)piperidin-1-yl)phenyl)-N^4-(1-(methylsulfonyl)indolin-7-yl)-7H-pyrrolo[2,3-d]pyrimidine-2,4-diamine], the half-maximal inhibitory concentration (IC50) in experiment [1] was found to be 17 nM; in experiment [2], 0.42 nM; in experiment [3] it was 0.94 nM. For the same compound, the GI50 on BaF3-WT cells was 949 nM; at BaF3-LR_TM_CS cells, 40.5 nM; on BaF3-Del_TM_CS cells, 12.8 nM.
Regarding `COc1cc(N2CCC(N(C)C)CC2)ccc1Nc1ncc(Cl)c(Nc2cccc3c2N(S(C)(=O)=O)CC3)n1` [Example 36, 5-chloro-N^2-(4-(4-(dimethylamino)piperidin-1-yl)-2-methoxyphenyl)-N^4-(1-(methylsulfonyl)indolin-7-yl)pyrimidine-2,4-diamine], the IC50 in experiment [1] is 0.56 nM; in experiment [2], 0.41 nM; in experiment [3], 0.22 nM. For the same compound, the GI50 was 414 nM on BaF3-WT cells, 25.9 nM on BaF3-LR_TM_CS cells and 10 nM on BaF3-Del_TM_CS cells.
For the compound `CCOc1cc(N2CCC(N3CCN(C)CC3)CC2)c(C)cc1Nc1nc(Nc2cccc3c2N(S(C)(=O)=O)CC3)c2cc[nH]c2n1` [Example 93, N^2-(2-ethoxy-5-methyl-4-(4-(4-methylpiperazin-1-yl)piperidin-1-yl)phenyl)-N^4-(1-(methylsulfonyl)indolin-7-yl)-7H-pyrrolo[2,3-d]pyrimidine-2,4-diamine], the values for the half-maximal inhibitory concentration (IC50) in experiment [1], in experiment [2] and in experiment [3] were 110 nM, 1.5 nM and 2.6 nM, respectively. For the same compound, the GI50 came out at 1520 nM at BaF3-WT cells, 218 nM at BaF3-LR_TM_CS cells and 54.1 nM on BaF3-Del_TM_CS cells.
